Experimental data published in article PMC6538953, “Metal Ions Activate the Human Taste Receptor TAS2R7” (Chemical Senses, 2019).
Where a chain is given by its changes, count along the chain named. Like-named read-outs stand apart in the source and are kept apart here.

Assays:
[1] = target: T1, human TAS2R7 (Homo sapiens, UniProt Q9NYW3); assay: Calcium mobilization assay, HEK293 cells transfected with TAS2R7 and Gα16-gust44; type: cell-based
T1 construct: first 45 residues of rat somatostatin receptor 3 (signal peptide) (N); expressed in transfected cells; host or cells: HEK293 (PEAKrapid, ATCC CRL-2828)
T1 sequence (Q9NYW3 1-318): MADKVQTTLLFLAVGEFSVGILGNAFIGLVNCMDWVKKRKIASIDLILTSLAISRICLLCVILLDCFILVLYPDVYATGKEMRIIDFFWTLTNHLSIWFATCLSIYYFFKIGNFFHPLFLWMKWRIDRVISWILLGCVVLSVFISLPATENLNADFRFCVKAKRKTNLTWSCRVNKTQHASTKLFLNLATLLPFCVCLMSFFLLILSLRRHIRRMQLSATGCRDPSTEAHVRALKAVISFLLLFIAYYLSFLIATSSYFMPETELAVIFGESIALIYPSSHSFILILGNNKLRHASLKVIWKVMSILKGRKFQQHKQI
Description: (§1) The coding sequences of human TAS2Rs were amplified from human genomic DNA, then subcloned into pcDNA3.1(+) vector, with the herpes simplex virus glycoprotein D epitope (HSV) at the C-terminal and a signal peptide consisting of the first 45 amino acid residues of the rat somatostatin receptor 3 at the N-terminal, essentially as described previously ([Bufe et al. 2002]). Point mutations in human TAS2R7 (NCBI Reference Sequence: NP_076408.1) were constructed by site-directed mutagenesis. All the constructs were confirmed by Sanger sequencing.
All tested compounds were purchased from Sigma–Aldrich, with the exception of diphenidol hydrochloride (Reagent World) and L-praziquantel (manufactured by Shaoxing Pharmaceutical Co. Ltd.). All the metal ions were dissolved in the assay solution (130 mM NaCl, 5 mM KCl, 2 mM CaCl2, and 10 mM glucose; pH 7.4) unless specified otherwise, and the bitter compounds (diphenidol, quinine, and chlorphenamine) were dissolved first in dimethyl sulfoxide (DMSO) as stock solution and then diluted with the assay solution; the final DMSO concentration was below 0.5%, with the exception of cromolyn, which is dissolved in the assay solution directly. For our initial screening (Table 1), Hanks’ balanced salt solution (HBSS, ThermoFisher, catalog no. 14025134) supplemented with 10 mM hydroxyethyl piperazineethanesulfonic acid (HEPES) were used as the assay buffer.
(§2) Human embryonic kidney 293 (PEAKrapid, ATCC # CRL-2828) cells were cultured in Opti-MEM medium with 4% fetal bovine serum. One day before transfection, cells were seeded on a 96-well plate at a density of 25 000 per well. Cells were then transiently transfected with a TAS2R construct (0.1 µg/well) along with a G protein Gα16-gust44 (0.1 µg/well) construct by Lipofectamine 2000 (0.5 µl/well). For controls, only Gα16-gust44 was used (mock transfection). Twenty-four hours after transfection, cells were washed with HBSS including 10 mM HEPES and loaded with Fluo-4 in the dark for 1 h. After incubation, cells were washed 2 times with HBSS (including 10 mM HEPES), incubated in the dark for another 30 min, and then washed with assay solution once more before running the assay using a FlexStation III reader. Relative fluorescence units (excitation at 494 nm, emission at 516 nm, and auto cutoff at 515 nm) were read every 2 s for 2 min. Calcium mobilization traces were recorded.
(§3) Calcium mobilization traces were raw data obtained from single wells. Changes in fluorescence (ΔF) were calculated as the peak fluorescence minus baseline fluorescence ([Lei et al. 2015]). The calcium mobilization was quantified as the percentage of change (ΔF) relative to baseline (F). […] Calcium mobilization traces and bar graphs along with dose-dependent plots were all generated by GraphPad Prism 7. Analysis of variance with Dunnett’s multiple comparisons test was used for statistical analysis. *P < 0.05.
To determine whether a TAS2R responds to metal ions, we expressed all 25 human bitter receptors individually in HEK293 cells (PEAKrapid) by transient transfection of a TAS2R along with a coupling chimeric G protein, Gα16-gust44. All TAS2Rs were cloned from human genomic DNA. Activation of human TAS2Rs was monitored by the calcium mobilization assay ([Lei et al. 2015]). We tested these receptors individually for their responses toward metal ions: ZnSO4 (20 mM), CuSO4 (20 mM), and MgCl2 (20 mM) (Table 1, Figure 1A). […] To determine the breadth of tuning of TAS2R7 toward metal ions, we also tested MnCl2 (20 mM), Al2(SO4)3 ([…]), and CaCl2 (20 mM) (Figure 1B).

[2] = system: mock-transfected HEK293 cells (Gα16-gust44 only); assay: Calcium mobilization assay, mock-transfected cells (Gα16-gust44 only); type: cell-based, human; conditions: any concentration tested (cromolyn 10 mM)
Description: as §2
as §3, with “Analysis of variance with Dunnett’s multiple comparisons test was used for statistical analysis. *P < 0.05.” left out

[3] = target: T2, human TAS2R7 E264^7.32Q mutant (Homo sapiens, UniProt Q9NYW3, E264Q); assay: Calcium mobilization assay, TAS2R7 mutant E264Q; type: cell-based; conditions: 20 mM metal ions except 0.16 mM Al2(SO4)3; cromolyn 10 mM; Figure 6C
T2 construct: signal peptide: first 45 amino acid residues of rat somatostatin receptor 3 (N); expressed in transfected cells; host or cells: HEK293 PEAKrapid (ATCC CRL-2828), transient, co-transfected with Gα16-gust44
T2 sequence (Q9NYW3 1-318 E264Q): T1 sequence (Q9NYW3 1-318) with E264Q
Description: as §1
Human embryonic kidney 293 (PEAKrapid, ATCC # CRL-2828) cells were cultured in Opti-MEM medium with 4% fetal bovine serum. […] After incubation, cells were washed 2 times with HBSS (including 10 mM HEPES), incubated in the dark for another 30 min, and then washed with assay solution once more before running the assay using a FlexStation III reader. Relative fluorescence units (excitation at 494 nm, emission at 516 nm, and auto cutoff at 515 nm) were read every 2 s for 2 min. Calcium mobilization traces were recorded.
Calcium mobilization traces were raw data obtained from single wells. Changes in fluorescence (ΔF) were calculated as the peak fluorescence minus baseline fluorescence ([Lei et al. 2015]). The calcium mobilization was quantified as the percentage of change (ΔF) relative to baseline (F). […]

- Response of TAS2R7-transfected cells at higher dose ([1]; 10 mM): robust response
- EC50 ([1]; Figure 4B, read-out: EC50, TAS2R7, dose-response analysis): 5.9 mM
- EC50 ([1]; assay solution containing calcium, Figures 3A, 4C, read-out: EC50, TAS2R7, in the presence of calcium): 6.67 mM
- EC50 ([1]; assay solution containing no calcium, Figures 3A, 4C, read-out: EC50, TAS2R7, in the absence of calcium): 5.22 mM
- Maximal response of TAS2R7 in the absence versus presence of calcium ([1]; assay solution without calcium compared with calcium): smaller
- Compounds triggering detectable responses in cells transfected with TAS2R7 ([1]; at the concentrations reported previously (Meyerhof et al. 2010), Figure 4A): none
- Response of E264Q mutant receptor [3]: reduced responses
SMILES: O=C(O)c1cc(=O)c2c(OCC(O)COc3cccc4oc(C(=O)O)cc(=O)c34)cccc2o1 [cromolyn, reference compound]
- Response of mock-transfected cells [2]: not
